The record followed here is patent US11485736B2 (KSQ Therapeutics, Inc., priority 2018, dated 2022).

The nature of data set [1]: ADME solubility determination at pH 2.0 and pH 7.4. In kind it is physicochemical. The note with it: aqueous buffer, thermodynamic from solid, LC-MS/MS. A digest of the protocol: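 Dried residues of 10 mM DMSO stocks were shaken in PBS pH 7.4 or pH 2.0 for 24 hours at 25° C. and 1,100 rpm. After centrifugation, supernatants were quantified by LC-MS/MS against a standard of known concentration, applying a dilution factor.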

A short description of data set [2]: Liver microsomal stability, rat liver microsomes. The note with it: 1 μM compound, NADPH, read-out: t1/2 (min) in RLM. In kind it is in vitro ADME. A digest of the protocol:
(§1)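 Compound (1 μM final) was incubated with prewarmed human or rat liver microsomes (1 mg/mL in 100 mM phosphate master mix) plus NADPH; aliquots at 0.5–30 minutes were quenched in cold acetonitrile and quantified by LC-MS/MS. Half-life came from the ln(% remaining) versus time slope, converted to CLint (μL/min/mg prot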
(Microsomes from liver hold many membrane-bound enzymes, among them those of drug oxidation.)

Data set [3] in a line: Liver microsomal stability, human liver microsomes. The format is in vitro ADME. The settings on record: 1 μM compound, NADPH, read-out: t1/2 (min) in HLM. A digest of the protocol:
as §1

Setting [4] is: PBS pH 2.0, shaken at 25° C. for 24 hours, read-out: Solubility at pH 2.0.
Setting [5] is: PBS pH 7.4, shaken at 25° C. for 24 hours, read-out: Solubility at pH 7.4.

As a reminder, the solubility is the dissolved amount per volume that the medium holds.

Structures are written as SMILES. Where two headings read alike, the source gives them in different places. A value given as a limit tells only on which side of the number the result lay.

As to `CCn1cc(C(F)(F)F)nc1-c1ccc([C@H](C)n2ncc3cnc(-c4c(OC)ncnc4C(C)C)nc32)cc1` [Example 117], the solubility at 24 h in data set [1] (setting [4]) and in data set [1] (setting [5]) was over 10 µM in each case. Besides, the half-life at 1 μM in data set [2] and in data set [3] was under 25 min in each case.

Consider `CCn1cc(C(F)(F)F)nc1-c1ccc([C@H](C)n2ncc3cnc(-c4c(OC)ncnc4C(C)C)nc32)cc1F` [Example 118], for which the solubility at 24 h in data set [1] (setting [4]) and in data set [1] (setting [5]) was under 10 µM throughout. Also, the results for the half-life at 1 μM in data set [2] and in data set [3] were under 25 min and over 25 min, respectively.

Consider `COc1ncnc(C(C)C)c1-c1ncc2cnn(Cc3ccc(-c4nc(C(F)(F)F)cn4C(C)C)cc3)c2n1` [Example 119], for which the solubility at 24 h in data set [1] (setting [4]) was under 10 µM; in data set [1] (setting [5]) it was over 10 µM. Also, the half-life at 1 μM in data set [2] and in data set [3] was over 25 min in each case.

Turning to `CNc1cc(C(F)(F)F)nn1-c1ccc(Cn2ncc3cnc(-c4c(OC)ncnc4C4CC4)nc32)cc1` [Example 120], the solubility at 24 h in data set [1] (setting [4]) and in data set [1] (setting [5]) was under 10 µM each time. Besides, the half-life at 1 μM in data set [2] and in data set [3] was under 25 min in each case.

For `COc1ncnc(C2CC2)c1-c1ncc2cnn(Cc3ccc(-n4nc(C(F)(F)F)cc4N(C)C)cc3)c2n1` [Example 121], the solubility at 24 h in data set [1] (setting [4]) and in data set [1] (setting [5]) was under 10 µM each time. In addition, the half-life at 1 μM in data set [2] and in data set [3] was under 25 min in each case.

Take `COc1ncnc(C2CC2)c1-c1ncc2cnn(Cc3ccc(-n4nc(C(F)(F)F)cc4N(C)C)c(F)c3)c2n1` [Example 122]: the solubility at 24 h in data set [1] (setting [4]) and in data set [1] (setting [5]) was under 10 µM in each case. Also, the half-life at 1 μM in data set [2] and in data set [3] was under 25 min each time.

Consider `COc1ncnc(C2CC2)c1-c1ncc2cnn(Cc3ccc(-n4nc(C(F)F)cc4N(C)C)cc3)c2n1` [Example 123], for which the solubility at 24 h in data set [1] (setting [4]) and in data set [1] (setting [5]) was under 10 µM in each case. Besides, the half-life at 1 μM in data set [2] and in data set [3] was under 25 min each time.

Turning to `COc1ncnc(C2CC2)c1-c1ncc2cnn(Cc3ccc(-c4nc(C(F)(F)F)sc4C)cc3)c2n1` [Example 125], the solubility at 24 h in data set [1] (setting [4]) and in data set [1] (setting [5]) was under 10 µM each time. Moreover, the half-life at 1 μM in data set [2] and in data set [3] was over 25 min in each case.

Consider `COc1ncnc(C2CC2)c1-c1ncc2cnn(Cc3ccc(-c4nc(C(F)(F)F)oc4C)cc3)c2n1` [Example 127], for which the solubility at 24 h in data set [1] (setting [4]) and in data set [1] (setting [5]) was under 10 µM each time. Also, the half-life at 1 μM in data set [2] and in data set [3] was over 25 min each time.

Consider `CCn1cc(C(F)(F)F)nc1-c1ccc(Cn2ncc3cnc(-c4c(OC)ncnc4C4CC4)nc32)cc1OC` [Example 128], for which the solubility at 24 h in data set [1] (setting [4]) and in data set [1] (setting [5]) was over 10 µM in each case. Also, the half-life at 1 μM in data set [2] was under 25 min; in data set [3], over 25 min.

For `COc1cc(Cn2ncc3cnc(-c4c(OC)ncnc4C4CC4)nc32)ccc1-c1nc(C(F)(F)F)cn1CCF` [Example 129], the solubility at 24 h in data set [1] (setting [4]) was over 10 µM; in data set [1] (setting [5]) it was under 10 µM. Further, the half-life at 1 μM in data set [2] and in data set [3] was over 25 min in each case.

On to `COc1ncnc(C2CC2)c1-c1ncc2cnn(Cc3ccc(-c4nc5c(F)cccc5n4C)cc3)c2n1` [Example 131], for which the solubility at 24 h in data set [1] (setting [4]) was over 10 µM; in data set [1] (setting [5]), under 10 µM. Further, the half-life at 1 μM in data set [2] and in data set [3] was over 25 min each time.

In the case of `COc1nc(C)nc(C2CC2)c1-c1ncc2cnn(Cc3ccc(-c4nc(C(F)(F)F)cn4C)cc3)c2n1` [Example 133, 6-(4-Cyclopropyl-6-methoxy-2-methylpyrimidin-5-yl)-1-(4-(1-methyl-4-(trifluoromethyl)-1H-imidazol-2-yl)benzyl)-1H-pyrazolo[3,4-d]pyrimidine], the solubility at 24 h in data set [1] (setting [4]) and in data set [1] (setting [5]) was over 10 µM each time. Besides, the half-life at 1 μM in data set [2] and in data set [3] was under 25 min in each case.

Consider `COc1ncnc(C2CC2)c1-c1ncc2cnn(Cc3ccc(-c4nc(C(F)(F)F)c[nH]4)cc3)c2n1` [Example 134, 6-(4-cyclopropyl-6-methoxypyrimidin-5-yl)-1-(4-(4-(trifluoromethyl)-1H-imidazol-2-yl)benzyl)-1H-pyrazolo[3,4-d]pyrimidine], for which the solubility at 24 h in data set [1] (setting [4]) and in data set [1] (setting [5]) was under 10 µM each time. For the same compound, the half-life at 1 μM in data set [2] and in data set [3] was over 25 min throughout.

Turning to `COc1ncnc(C2CC2)c1-c1ncc2cnn(Cc3ccc(-c4nc(C(F)(F)F)c5n4CCNC5)cc3)c2n1` [Example 136, 6-(4-Cyclopropyl-6-methoxypyrimidin-5-yl)-1-(4-(1-(trifluoromethyl)-5,6,7,8-tetrahydroimidazo[1,5-a]pyrazin-3-yl)benzyl)-1H-pyrazolo[3,4-d]pyrimidine], the figures for the solubility at 24 h in data set [1] (setting [4]) and in data set [1] (setting [5]) were over 10 µM and under 10 µM, respectively. Moreover, the half-life at 1 μM in data set [2] and in data set [3] was under 25 min in each case.

Regarding `COc1ncnc(C2CC2)c1-c1ncc2cnn(Cc3ccc(-c4nc(C(F)(F)F)cn4CCF)cc3)c2n1` [Example 137], the solubility at 24 h in data set [1] (setting [4]) and in data set [1] (setting [5]) was over 10 µM in each case. In addition, the half-life at 1 μM in data set [2] and in data set [3] was over 25 min throughout.

On to `COc1ncnc(C2CC2)c1-c1ncc2cnn(Cc3ccc(-c4nc(C(F)(F)F)cn4CC(F)F)cc3)c2n1` [Example 138], for which the solubility at 24 h in data set [1] (setting [4]) and in data set [1] (setting [5]) was over 10 µM in each case. In addition, the half-life at 1 μM in data set [2] and in data set [3] was over 25 min throughout.

Regarding `[2H]C([2H])([2H])C([2H])([2H])n1cc(C(F)(F)F)nc1-c1ccc(Cn2ncc3cnc(-c4c(OC)ncnc4C4CC4)nc32)cc1` [Example 139], the solubility at 24 h in data set [1] (setting [4]) and in data set [1] (setting [5]) was over 10 µM throughout. Moreover, the half-life at 1 μM in data set [2] and in data set [3] was over 25 min in each case.

On to `[2H]C([2H])([2H])C([2H])(n1cc(C(F)(F)F)nc1-c1ccc(Cn2ncc3cnc(-c4c(OC)ncnc4C4CC4)nc32)cc1)C([2H])([2H])[2H]` [Example 140], for which the solubility at 24 h in data set [1] (setting [4]) and in data set [1] (setting [5]) was under 10 µM in each case. In addition, the half-life at 1 μM in data set [2] and in data set [3] was over 25 min in each case.

For `COc1ncnc(C2CC2)c1-c1ncc2cnn(C(C)c3ccc(-c4nc(C(F)(F)F)cn4CCF)cc3)c2n1` (stereo not drawn) [Example 141], the solubility at 24 h is over 10 µM in data set [1] (setting [4]) and under 10 µM in data set [1] (setting [5]). The half-life at 1 μM in data set [2] and in data set [3] was over 25 min each time.

`COc1ncnc(C2CC2)c1-c1ncc2cnn(Cc3ccc(-c4nc(C(F)(F)F)cn4CC(C)F)cc3)c2n1` (stereo not drawn) [Example 142]: the solubility at 24 h in data set [1] (setting [4]) is over 10 µM; in data set [1] (setting [5]), under 10 µM. Moreover, the half-life at 1 μM was under 25 min in data set [2] and over 25 min in data set [3].

`COc1ncnc(C2CC2)c1-c1ncc2cnn(Cc3ccc(-c4nc(C(F)(F)F)cn4C(C)C)cc3)c2n1` [Example 143]: the solubility at 24 h in data set [1] (setting [4]) and in data set [1] (setting [5]) was under 10 µM throughout. In addition, the half-life at 1 μM in data set [2] and in data set [3] was over 25 min throughout.

`COc1ncnc(C2CC2)c1-c1ncc2cnn(Cc3ccc(-c4nc(C(F)(F)F)cn4C4CCC4)cc3)c2n1` [Example 144]: the solubility at 24 h in data set [1] (setting [4]) and in data set [1] (setting [5]) was under 10 µM throughout. Moreover, the half-life at 1 μM in data set [2] is under 25 min; in data set [3] it was over 25 min.

Take `COc1ncnc(C2CC2)c1-c1ncc2cnn(Cc3ccc(-c4nc(C(F)(F)F)cn4C4COC4)cc3)c2n1` [Example 145]: the solubility at 24 h in data set [1] (setting [4]) and in data set [1] (setting [5]) was over 10 µM throughout. Also, the half-life at 1 μM in data set [2] was under 25 min; in data set [3], over 25 min.

On to `COc1ncnc(C2CC2)c1-c1ncc2cnn(Cc3ccc(-c4nc(C(F)(F)F)cn4C4CCOC4)cc3)c2n1` (stereo not drawn) [Example 146], for which the solubility at 24 h in data set [1] (setting [4]) and in data set [1] (setting [5]) was over 10 µM each time. For the same compound, the half-life at 1 μM in data set [2] and in data set [3] was under 25 min each time.

`CCn1cc(C#N)nc1-c1ccc(Cn2ncc3cnc(-c4c(OC)ncnc4C4CC4)nc32)cc1` [Example 148, 2-(4-((6-(4-cyclopropyl-6-methoxypyrimidin-5-yl)-1H-pyrazolo[3,4-d]pyrimidin-1-yl)methyl)phenyl)-1-ethyl-1H-imidazole-4-carbonitrile]: the solubility at 24 h in data set [1] (setting [4]) and in data set [1] (setting [5]) was under 10 µM in each case. In addition, the half-life at 1 μM in data set [2] and in data set [3] was under 25 min each time.

As for `COCC(C)n1cc(C(F)(F)F)nc1-c1ccc(Cn2ncc3cnc(-c4c(OC)ncnc4C4CC4)nc32)cc1` (stereo not drawn) [Example 150, 6-(4-cyclopropyl-6-methoxypyrimidin-5-yl)-1-(4-(1-(1-methoxypropan-2-yl)-4-(trifluoromethyl)-1H-imidazol-2-yl)benzyl)-1H-pyrazolo[3,4-d]pyrimidine], the solubility at 24 h in data set [1] (setting [4]) and in data set [1] (setting [5]) was over 10 µM throughout. Moreover, the half-life at 1 μM in data set [2] and in data set [3] was under 25 min throughout.
